# Results as given in patent US9708314B2, “Heterocyclic amide compound” (NISSAN CHEMICAL INDUSTRIES, LTD., priority 2013, dated 2017).
# Columns and labels:
# Type in all cases: in vivo
# [1] = tested on: Abutilon theophrasti; test: Test Example 4: herbicidal effect by application to foliage (diluvial soil, plastic box)
# Excerpt: (§1) 5 Herbicidal ratio of 90% or more (almost completely withered) 4 Herbicidal ratio of 70% or more and less than 90% 3 Herbicidal ratio of 40% or more and less than 70% 2 Herbicidal ratio of 20% or more and less than 40% 1 Herbicidal ratio of 5% or more and less than 20% 0 Herbicidal ratio of 5% or less (almost no effect) [Test Example 4] Herbicidal Effect Test by Application to Foliage Sterilized diluvial soil was placed in a plastic box having a length of 21 cm, a width of 13 cm, and a depth of 7 cm. Each of the seeds of Digitaria ciliaris, Setaria viridis, Echinochloa crus-galli var. crus-galli, Avena fatua, Alopecurus myosuroides, Lolium multiflorum Lam., Apera spica-venti., Abutilon theophrasti, Amaranthus retroflexus, Chenopodium album, Stellaria media, Galium spurium, Veronica persica, Zea mays, Glycine max, Oryza sativa, Triticum aestivum, Beta vulgaris ssp. vulgaris, and Brassica campestris L. was sowed in a spot-like manner and was covered with the soil of about 1.5 cm thick. Thereafter, the plants were grown in the greenhouse of 25° C. to 30° C. After the plants were grown for 14 days, the emulsion agent containing the compound of the present invention prepared in accordance with Formulation Example 2 was diluted with water so as to be a predetermined herbicide amount and the diluted compound was uniformly applied to a stem and leaf part with a small-size spray. Three weeks after the herbicide application, effects on each plant were investigated in accordance with the criteria of Test Example 1. A: Echinochloa oryzicola Vasing., B: Scirpus juncoides, C: Monochoria vaginalis, D: Leptochloa chinensis, E: Cyperus difformis, F: Digitaria ciliaris, G: Setaria viridis, H: Echinochloa crus-galli var. crus-galli, I: Avena fatua, J: Alopecurus myosuroides, K: Lolium multiflorum Lam., L: Apera spica-venti., M: Abutilon theophrasti, N: Amaranthus retroflexus, O: Chenopodium album, P: Stellaria media, Q: Galium spurium, R: Veronica persica, a: transplanted Oryza sativa, b: directly sowed Oryza sativa, c: Zea mays, d: Glycine max, e: Triticum aestivum, f: Beta vulgaris ssp. vulgaris, and g: Brassica campestris L. The application herbicide amount (g/ha) means an amount that a concentration is adjusted so that, when an application amount is converted into per hectare (1 ha), the herbicide is applied by the number of grams (g) of the described value.
# [2] = tested on: Alopecurus myosuroides; test: as above
# Excerpt: as §1
# [3] = tested on: Amaranthus retroflexus; test: as above; settings: application to foliage
# Excerpt: as §1
# [4] = tested on: Apera spica-venti.; test: as above
# Excerpt: as §1
# [5] = tested on: Avena fatua; test: as above
# Excerpt: as §1
# [6] = tested on: Chenopodium album; test: as above
# Excerpt: as §1
# [7] = tested on: Digitaria ciliaris; test: as above
# Excerpt: as §1
# [8] = tested on: Echinochloa crus-galli var. crus-galli; test: as above
# Excerpt: as §1
# [9] = tested on: Galium spurium; test: as above
# Excerpt: as §1
# [10] = tested on: Lolium multiflorum Lam.; test: as above
# Excerpt: as §1
# [11] = tested on: Setaria viridis; test: as above
# Excerpt: as §1
# [12] = tested on: Stellaria media; test: as above; settings: application to foliage
# Excerpt: as §1
# [13] = tested on: Veronica persica; test: as above
# Excerpt: as §1
# [14] = tested on: Beta vulgaris ssp. vulgaris; test: Test Example 4: effect on crop by application to foliage (diluvial soil, plastic box)
# Excerpt: as §1
# [15] = tested on: Brassica campestris L.; test: as above
# Excerpt: as §1
# [16] = tested on: Glycine max; test: as above
# Excerpt: as §1
# [17] = tested on: Triticum aestivum; test: as above
# Excerpt: as §1
# [18] = tested on: Zea mays; test: as above
# Excerpt: as §1
# [19] = tested on: directly sowed Oryza sativa; test: as above
# Excerpt: as §1
# [20] = tested on: Cyperus difformis; test: Test Example 3: herbicidal effect by application to foliage (Wagner pot, water depth 0.1-0.5 cm); settings: Nineteenth Table; application to foliage; application herbicide amount 224 g/ha
# Excerpt: (§2) 5 Herbicidal ratio of 90% or more (almost completely withered) 4 Herbicidal ratio of 70% or more and less than 90% 3 Herbicidal ratio of 40% or more and less than 70% 2 Herbicidal ratio of 20% or more and less than 40% 1 Herbicidal ratio of 5% or more and less than 20% 0 Herbicidal ratio of 5% or less (almost no effect) [Test Example 3] Herbicidal Effect Test by Application to Foliage After alluvial soil was placed into 1/10000 are of Wagner pot, water was poured and mixed to form a condition having a water depth of 0.1 cm to 0.5 cm. Seeds of Echinochloa crus-galli var. crus-galli, Leptochloa chinensis, Cyperus difformis, and Oryza sativa were sowed and the pot was placed in the greenhouse of 25° C. to 30° C. to grow the plants. After the plants were grown for 14 days, the emulsion agent containing the compound of the present invention prepared in accordance with Formulation Example 2 was diluted with water so as to be a predetermined herbicide amount and the diluted compound was uniformly applied to a stem and leaf part with a small-size spray. Three weeks after the herbicide application, effects on each plant were investigated in accordance with the criteria of Test Example 1. A: Echinochloa oryzicola Vasing., B: Scirpus juncoides, C: Monochoria vaginalis, D: Leptochloa chinensis, E: Cyperus difformis, F: Digitaria ciliaris, G: Setaria viridis, H: Echinochloa crus-galli var. crus-galli, I: Avena fatua, J: Alopecurus myosuroides, K: Lolium multiflorum Lam., L: Apera spica-venti., M: Abutilon theophrasti, N: Amaranthus retroflexus, O: Chenopodium album, P: Stellaria media, Q: Galium spurium, R: Veronica persica, a: transplanted Oryza sativa, b: directly sowed Oryza sativa, c: Zea mays, d: Glycine max, e: Triticum aestivum, f: Beta vulgaris ssp. vulgaris, and g: Brassica campestris L. The application herbicide amount (g/ha) means an amount that a concentration is adjusted so that, when an application amount is converted into per hectare (1 ha), the herbicide is applied by the number of grams (g) of the described value.
# [21] = tested on: Echinochloa crus-galli var. crus-galli; test: as above; settings: Nineteenth Table; application to foliage; application herbicide amount 224 g/ha
# Excerpt: as §2
# [22] = tested on: Leptochloa chinensis; test: as above; settings: Nineteenth Table; application to foliage; application herbicide amount 224 g/ha
# Excerpt: as §2
# [23] = tested on: directly sowed Oryza sativa; test: Test Example 3: effect on crop by application to foliage (Wagner pot, water depth 0.1-0.5 cm); settings: Nineteenth Table; application to foliage; application herbicide amount 224 g/ha
# Excerpt: as §2
# [24] = application to foliage, 320 g/ha
# [25] = application to foliage, application herbicide amount 320 g/ha
# [26] = application herbicide amount 320 g/ha
# [27] = Application herbicide amount 224 g/ha
# [28] = Application herbicide amount 224 g/ha, effect on crop
compound,measurement,setting,value
CC(C)c1nnc2c(C(=O)Nc3ncn[nH]3)ccc(C(F)(F)F)n12 [4-004],"herbicidal effect, M (Abutilon theophrasti)",[1]; [24],0 (Herbicidal ratio of 5% or less (almost no effect))
same,"herbicidal effect, J (Alopecurus myosuroides)",[2]; [24],0 (Herbicidal ratio of 5% or less (almost no effect))
same,"herbicidal effect, N (Amaranthus retroflexus)",[3]; 320 g/ha,0 (Herbicidal ratio of 5% or less (almost no effect))
same,"herbicidal effect, L (Apera spica-venti.)",[4]; [24],0 (Herbicidal ratio of 5% or less (almost no effect))
same,"herbicidal effect, I (Avena fatua)",[5]; [24],0 (Herbicidal ratio of 5% or less (almost no effect))
same,"herbicidal effect, O (Chenopodium album)",[6]; [24],4 (Herbicidal ratio of 70% or more and less than 90%)
same,"herbicidal effect, F (Digitaria ciliaris)",[7]; [24],0 (Herbicidal ratio of 5% or less (almost no effect))
same,"herbicidal effect, H (Echinochloa crus-galli var. crus-galli)",[8]; [24],0 (Herbicidal ratio of 5% or less (almost no effect))
same,"herbicidal effect, Q (Galium spurium)",[9]; [24],0 (Herbicidal ratio of 5% or less (almost no effect))
same,"herbicidal effect, K (Lolium multiflorum Lam.)",[10]; [24],0 (Herbicidal ratio of 5% or less (almost no effect))
same,"herbicidal effect, G (Setaria viridis)",[11]; [24],0 (Herbicidal ratio of 5% or less (almost no effect))
same,"herbicidal effect, P (Stellaria media)",[12]; 320 g/ha,0 (Herbicidal ratio of 5% or less (almost no effect))
same,"herbicidal effect, R (Veronica persica)",[13]; [24],0 (Herbicidal ratio of 5% or less (almost no effect))
same,"effect on crop, f (Beta vulgaris ssp. vulgaris)",[14]; [24],0 (Herbicidal ratio of 5% or less (almost no effect))
same,"effect on crop, g (Brassica campestris L.)",[15]; [24],0 (Herbicidal ratio of 5% or less (almost no effect))
same,"effect on crop, c (Glycine max)",[16]; [24],0 (Herbicidal ratio of 5% or less (almost no effect))
same,"effect on crop, e (Triticum aestivum)",[17]; [24],0 (Herbicidal ratio of 5% or less (almost no effect))
same,"effect on crop, b (Zea mays)",[18]; [24],0 (Herbicidal ratio of 5% or less (almost no effect))
same,"effect on crop, d (directly sowed Oryza sativa)",[19]; [24],0 (Herbicidal ratio of 5% or less (almost no effect))
CC#Cc1nnc2c(C(=O)Nc3nnco3)ccc(C(F)(F)F)n12 [1-160],M: herbicidal effect on Abutilon theophrasti,[1]; [25],3 (Herbicidal ratio of 40% or more and less than 70%)
same,J: herbicidal effect on Alopecurus myosuroides,[2]; [25],0 (Herbicidal ratio of 5% or less (almost no effect))
same,N: herbicidal effect on Amaranthus retroflexus,[3]; [26],1 (Herbicidal ratio of 5% or more and less than 20%)
same,L: herbicidal effect on Apera spica-venti.,[4]; [25],0 (Herbicidal ratio of 5% or less (almost no effect))
same,I: herbicidal effect on Avena fatua,[5]; [25],0 (Herbicidal ratio of 5% or less (almost no effect))
same,O: herbicidal effect on Chenopodium album,[6]; [25],4 (Herbicidal ratio of 70% or more and less than 90%)
same,F: herbicidal effect on Digitaria ciliaris,[7]; [25],1 (Herbicidal ratio of 5% or more and less than 20%)
same,H: herbicidal effect on Echinochloa crus-galli var. crus-galli,[8]; [25],2 (Herbicidal ratio of 20% or more and less than 40%)
same,Q: herbicidal effect on Galium spurium,[9]; [25],0 (Herbicidal ratio of 5% or less (almost no effect))
same,K: herbicidal effect on Lolium multiflorum Lam.,[10]; [25],0 (Herbicidal ratio of 5% or less (almost no effect))
same,G: herbicidal effect on Setaria viridis,[11]; [25],0 (Herbicidal ratio of 5% or less (almost no effect))
same,P: herbicidal effect on Stellaria media,[12]; [26],3 (Herbicidal ratio of 40% or more and less than 70%)
same,R: herbicidal effect on Veronica persica,[13]; [25],1 (Herbicidal ratio of 5% or more and less than 20%)
same,"f: effect on crop, Beta vulgaris ssp. vulgaris",[14]; [25],2 (Herbicidal ratio of 20% or more and less than 40%)
same,"g: effect on crop, Brassica campestris L.",[15]; [25],0 (Herbicidal ratio of 5% or less (almost no effect))
same,"d: effect on crop, Glycine max",[16]; [25],2 (Herbicidal ratio of 20% or more and less than 40%)
same,"e: effect on crop, Triticum aestivum",[17]; [25],0 (Herbicidal ratio of 5% or less (almost no effect))
same,"c: effect on crop, Zea mays",[18]; [25],0 (Herbicidal ratio of 5% or less (almost no effect))
same,"b: effect on crop, directly sowed Oryza sativa",[19]; [25],0 (Herbicidal ratio of 5% or less (almost no effect))
Cc1nnc(NC(=O)c2c(C)cc(C(F)(F)F)n3c(C(C)C)nnc23)o1 [1-089],E (herbicidal effect grade),[20],2 (Herbicidal ratio of 20% or more and less than 40%)
same,H (herbicidal effect grade),[21],3 (Herbicidal ratio of 40% or more and less than 70%)
same,D (herbicidal effect grade),[22],3 (Herbicidal ratio of 40% or more and less than 70%)
same,b (effect on crop grade),[23],0 (Herbicidal ratio of 5% or less (almost no effect))
same,M,[1]; [27],2 (Herbicidal ratio of 20% or more and less than 40%)
same,J,[2]; [27],0 (Herbicidal ratio of 5% or less (almost no effect))
same,L,[4]; [27],0 (Herbicidal ratio of 5% or less (almost no effect))
same,I,[5]; [27],2 (Herbicidal ratio of 20% or more and less than 40%)
same,O,[6]; [27],4 (Herbicidal ratio of 70% or more and less than 90%)
same,F,[7]; [27],1 (Herbicidal ratio of 5% or more and less than 20%)
same,H,[8]; [27],3 (Herbicidal ratio of 40% or more and less than 70%)
same,Q,[9]; [27],0 (Herbicidal ratio of 5% or less (almost no effect))
same,K,[10]; [27],0 (Herbicidal ratio of 5% or less (almost no effect))
same,G,[11]; [27],0 (Herbicidal ratio of 5% or less (almost no effect))
same,R,[13]; [27],3 (Herbicidal ratio of 40% or more and less than 70%)
same,f,[14]; [28],3 (Herbicidal ratio of 40% or more and less than 70%)
same,g,[15]; [28],1 (Herbicidal ratio of 5% or more and less than 20%)
same,c,[16]; [28],0 (Herbicidal ratio of 5% or less (almost no effect))
same,e,[17]; [28],0 (Herbicidal ratio of 5% or less (almost no effect))
same,b,[18]; [28],0 (Herbicidal ratio of 5% or less (almost no effect))
same,d,[19]; [28],1 (Herbicidal ratio of 5% or more and less than 20%)
